Literature values, collected in patent US11332491B2, “E-selectin antagonist compounds, compositions, and methods of use” (GLYCOMIMETICS, INC., priority 2011, dated 2022).

System: human AML engrafted in NODscid IL2Rgc-/- mice
Conditions: ASH 2011 abstracts

c1cc(CN2CCCNCCNCCCNCC2)ccc1CN1CCCNCCNCCCNCC1 [plerixafor]
mobilization of human AML: approximately 2 fold
